Here are results for 1 compound from patent publication US20130109720A1, “INDOLE INHIBITORS OF CRAC” (Hoffmann-La Roche Inc., priority 2011, published 2013).

The term IC50 denotes the concentration at which inhibition is half-maximal. The low end stands for inhibition by little substance, the high end for a need for much substance.

The test system of this test is IL-2 production in Jurkat cell. In words: Jurkat IL-2 Production Assay. Format: cell-based. Conditions: Homo sapiens, Jurkat cell (ATCC), PHA stimulation with 1% FBS or PMA/Ionomycin with 30% FBS (which one not stated), 18-20 h incubation. The procedure:
Cell: Jurkat cell (ATCC) was grown in RPMI 1640 with 10% FBS and 1% penicillin/streptomycin. The cell density was kept at 1.2˜1.8×10^6/mL in culture flask before seeding into culture plate, and the cell density in the plate was 0.5×10^6/200 μL/well.
Culture media: RPMI 1640 with 1% FBS or 30% FBS for high serum assay.
Test compound: serial dilution was done in 100% DMSO, and intermediate dilution was done with RPMI 1640 medium with 1% FBS. The DMSO final concentration in culture well was 0.25%.
Stimulant: PHA (Sigma#L9017-10MG) was used for the assay with 1% FBS in culture medium, and added after 10 minutes exposure of cell to compound/DMSO. The […] final concentration in culture well was 5 μg/mL. PMA (Sigma# P-8139 5MG)/Ionomycin (Sigma# I0634-5MG) was used for the assay with 30% FBS in culture medium, and added at same time point as the 1% FBS culture assay. The final concentration of PMA was 50 ng/mL, and Ionomycin final concentration was 500 ng/mL.
Incubation: at 37° C. with 5% CO2 and 95% humidity for 18 h ˜20 h.
IC50: IC50 was calculated with the data analysis software XLfit4, General Pharmacology model 251.

For the compound `Cc1cc(S(C)(=O)=O)ncc1-c1ccc2[nH]c(-c3cncc(F)c3C)cc2c1` [Example 1, 2-(5-fluoro-4-methyl-pyridin-3-yl)-5-(6-methanesulfonyl-4-methyl-pyridin-3-yl)-1H-indole], the 50% inhibitory concentration (IC50) is 29 nM.
